Data: patent publication US20150328157A1, “APPLICATION OF SILICON DIOXIDE AEROGEL AS NANO-DRUG CARRYING SYSTEM IN PHARMACY” (GRADUATE SCHOOL AT SHENZHEN, TSINGHUA UNIVERSITY, priority 2012, published 2015)

Test: Bioavailability of nanosized paclitaxel oral dosage form in rat bodies (plasma paclitaxel by HPLC)
Type: in vivo, SD rats
Settings: male, SD, one-time intragastric administration 40 mg/kg
Procedure: Chromatographic conditions: Elite SinoChrom 300A ODS-AP 5 nm 4.6×250 mm Mobile phase: methanol:water:acetonitrile=23:41:36; flow rate: 1.0 ml/min; detection wavelength: 227 nm; and sample size: 20 μl.
Preparation of an internal standard solution: weighing about 10 mg of a diazepam control product, precisely weighing, putting into a 100 ml measuring flask, dissolving with methanol, diluting to the scale and shaking up to obtain an internal standard stock solution with the concentration of 100 μg/ml. An appropriate amount of the stock solution was precisely weighed, diluted with methanol to prepare 10 μg/ml of internal standard control product solution and preserved in the refrigerator at 4° C. for later use.
100 ul of plasma sample was taken and put into an EP tube, 5 μl (10 μg/ml) and 40 μl of NaHCO3(1 mol/L) was added, whirling was performed for 1 min, 1 ml of an extraction solvent, namely ethyl ether, was added, whirling was performed for 2 min, centrifugation was performed at 3500 r/min for 10 min, supernatant fluid was taken and blow-dried under air flow of 40° C., the residue was dissolved in 40 μl of mobile phase, whirling was performed for 1 min, centrifugation was performed at 3500 r/min for 10 min, and then 20 μl of supernatant fluid was taken for sample injection and analysis. […]

CC(=O)O[C@H]1C(=O)[C@@]2(C)[C@H]([C@H](OC(=O)c3ccccc3)[C@]3(O)C[C@H](OC(=O)[C@H](O)[C@@H](NC(=O)c4ccccc4)c4ccccc4)C(C)=C1C3(C)C)[C@]1(OC(C)=O)CO[C@@H]1C[C@@H]2O [paclitaxel]
AUC: 4890 ng·h/mL
